Test [1] addresses T1, Angiotensin-converting enzyme (Oryctolagus cuniculus, UniProt P12822).
T1 sequence (P12822 whole entry): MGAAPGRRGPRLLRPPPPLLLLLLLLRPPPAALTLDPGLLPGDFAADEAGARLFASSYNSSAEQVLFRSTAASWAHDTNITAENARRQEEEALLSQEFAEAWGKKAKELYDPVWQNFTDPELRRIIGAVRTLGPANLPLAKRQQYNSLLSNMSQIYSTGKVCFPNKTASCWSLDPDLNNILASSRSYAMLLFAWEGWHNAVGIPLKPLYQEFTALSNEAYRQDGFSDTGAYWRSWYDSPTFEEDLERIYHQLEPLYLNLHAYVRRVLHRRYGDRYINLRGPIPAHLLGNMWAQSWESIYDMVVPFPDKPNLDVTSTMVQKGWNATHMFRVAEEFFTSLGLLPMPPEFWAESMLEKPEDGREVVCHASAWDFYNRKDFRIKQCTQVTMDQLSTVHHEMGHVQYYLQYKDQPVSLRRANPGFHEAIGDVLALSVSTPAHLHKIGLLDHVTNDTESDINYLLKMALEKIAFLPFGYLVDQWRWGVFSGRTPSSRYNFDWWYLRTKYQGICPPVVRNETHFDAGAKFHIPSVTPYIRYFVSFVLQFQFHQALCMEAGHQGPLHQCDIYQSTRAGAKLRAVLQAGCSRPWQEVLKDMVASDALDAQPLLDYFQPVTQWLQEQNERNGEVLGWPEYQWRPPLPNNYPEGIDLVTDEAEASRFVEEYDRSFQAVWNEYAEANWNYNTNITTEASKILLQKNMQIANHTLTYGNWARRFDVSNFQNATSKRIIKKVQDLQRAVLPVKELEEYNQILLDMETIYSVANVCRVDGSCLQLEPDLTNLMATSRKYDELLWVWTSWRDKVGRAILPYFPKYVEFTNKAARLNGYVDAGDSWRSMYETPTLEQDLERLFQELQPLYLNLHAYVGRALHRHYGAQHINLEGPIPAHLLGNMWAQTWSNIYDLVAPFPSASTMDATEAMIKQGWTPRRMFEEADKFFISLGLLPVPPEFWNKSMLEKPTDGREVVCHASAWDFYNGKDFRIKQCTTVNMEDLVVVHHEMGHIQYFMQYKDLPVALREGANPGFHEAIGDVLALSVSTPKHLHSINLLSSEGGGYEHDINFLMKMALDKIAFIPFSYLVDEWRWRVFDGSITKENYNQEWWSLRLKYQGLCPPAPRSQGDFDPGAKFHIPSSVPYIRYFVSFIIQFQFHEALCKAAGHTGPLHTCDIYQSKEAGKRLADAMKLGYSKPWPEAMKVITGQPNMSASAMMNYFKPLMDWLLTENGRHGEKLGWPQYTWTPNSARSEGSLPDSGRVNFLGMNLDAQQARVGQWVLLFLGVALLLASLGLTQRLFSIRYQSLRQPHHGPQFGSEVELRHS
Format: tissue-based, Lung.

In the next test the target is T2, Calcitonin receptor (Homo sapiens, UniProt P30988). Note: in other assays of this panel Not Active means under 50% inhibition at 10 µM.
T2 sequence (P30988 whole entry): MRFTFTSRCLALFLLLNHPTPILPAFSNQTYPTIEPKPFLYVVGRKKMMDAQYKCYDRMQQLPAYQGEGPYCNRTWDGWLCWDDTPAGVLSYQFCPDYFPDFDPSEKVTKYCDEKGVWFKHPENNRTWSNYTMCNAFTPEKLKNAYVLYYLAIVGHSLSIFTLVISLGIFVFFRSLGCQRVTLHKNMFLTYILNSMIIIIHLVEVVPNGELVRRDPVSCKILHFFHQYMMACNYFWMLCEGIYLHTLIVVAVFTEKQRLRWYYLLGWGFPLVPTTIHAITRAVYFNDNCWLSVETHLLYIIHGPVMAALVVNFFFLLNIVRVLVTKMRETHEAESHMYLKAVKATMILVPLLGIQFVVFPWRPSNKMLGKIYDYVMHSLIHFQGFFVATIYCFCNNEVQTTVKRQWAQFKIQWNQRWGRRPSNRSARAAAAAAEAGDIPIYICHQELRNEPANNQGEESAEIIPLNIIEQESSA
The test is classed as cell membranes, Membrane. The note with it: t47d.

A short description of test [2]: DRUGMATRIX: Phosphodiesterase PDE3 enzyme inhibition (substrate: [3H]cAMP + cAMP). Format: tissue-based, Homo sapiens. The conditions noted are these: platelet; Not Active = under 50% inhibition at 10 µM.
In another test the target is T3, D(4) dopamine receptor (Homo sapiens, UniProt P21917).
T3 sequence (P21917 whole entry): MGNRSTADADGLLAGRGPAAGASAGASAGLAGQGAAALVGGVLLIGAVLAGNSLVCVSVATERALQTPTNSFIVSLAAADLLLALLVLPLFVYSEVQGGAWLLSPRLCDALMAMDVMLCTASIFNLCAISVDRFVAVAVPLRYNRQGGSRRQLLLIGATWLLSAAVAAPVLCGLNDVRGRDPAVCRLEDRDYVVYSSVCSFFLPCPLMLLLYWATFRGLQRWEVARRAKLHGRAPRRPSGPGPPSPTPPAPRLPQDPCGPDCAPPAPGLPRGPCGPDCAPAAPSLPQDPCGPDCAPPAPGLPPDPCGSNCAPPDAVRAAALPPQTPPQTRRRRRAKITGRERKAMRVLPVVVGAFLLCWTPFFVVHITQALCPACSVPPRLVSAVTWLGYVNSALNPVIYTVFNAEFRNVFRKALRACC
Kind of test: DRUGMATRIX: Dopamine D4.2 radioligand binding (ligand: [3H] Spiperone). Format: cell membranes, CHO-K1, Membrane. The note with it: cho-k1; Not Active = under 50% inhibition at 10 µM.

In the next test the target is T4, Adenosine receptor A3 (Homo sapiens, UniProt P0DMS8).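 Note: radioligand binding assay with AB-MECA serving as the labeled ligand; in other assays of this panel Not Active means under 50% inhibition at 10 µM.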
T4 sequence (P0DMS8 whole entry): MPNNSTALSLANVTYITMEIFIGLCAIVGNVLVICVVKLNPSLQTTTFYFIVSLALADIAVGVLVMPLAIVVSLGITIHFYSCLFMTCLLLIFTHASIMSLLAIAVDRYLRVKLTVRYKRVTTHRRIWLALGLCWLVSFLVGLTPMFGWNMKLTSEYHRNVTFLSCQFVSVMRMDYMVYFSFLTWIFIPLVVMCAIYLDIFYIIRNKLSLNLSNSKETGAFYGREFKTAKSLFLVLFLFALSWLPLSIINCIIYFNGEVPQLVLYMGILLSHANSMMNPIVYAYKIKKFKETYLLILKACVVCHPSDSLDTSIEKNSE
The test is classed as cell membranes, CHO-K1, Membrane.

The target in test [3] is Platelet-activating factor receptor (Homo sapiens, UniProt P25105). The test is classed as tissue-based. Note: in other assays of this panel Not Active means under 50% inhibition at 10 µM.

Molecules are shown by their SMILES.

By IC50 is commonly meant the point on the concentration scale where inhibition reaches its midpoint. By Ki is commonly meant the dissociation constant of the complex between target and ligand, obtained from inhibition or displacement.

Platelet-activating factor receptor, sequence (P25105 whole entry): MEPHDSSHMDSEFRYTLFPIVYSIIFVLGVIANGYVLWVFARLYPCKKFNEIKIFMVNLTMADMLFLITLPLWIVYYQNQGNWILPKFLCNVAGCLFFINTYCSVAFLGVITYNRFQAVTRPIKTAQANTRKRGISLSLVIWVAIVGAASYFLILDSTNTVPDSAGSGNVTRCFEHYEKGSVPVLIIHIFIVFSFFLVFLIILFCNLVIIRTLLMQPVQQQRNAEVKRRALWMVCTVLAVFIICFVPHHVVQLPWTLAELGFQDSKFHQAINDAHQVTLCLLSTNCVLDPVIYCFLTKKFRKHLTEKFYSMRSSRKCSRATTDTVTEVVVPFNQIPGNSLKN

With `O=C(c1ccccc1C(F)(F)F)N1CCC(Cc2ccccc2)CC1`, the half-inhibitory concentration (IC50) entry (in test [1]; at Calcitonin receptor; in test [2]; on D(4) dopamine receptor; at Adenosine receptor A3 (cho-k1); in test [3]) was “Not Active” in each case. Moreover, the Ki result in test [2] is reported as “Not Active”.

As to `O=C/C=C/c1ccccc1`, the half-maximal inhibitory concentration (IC50) entry (in test [1]; at Calcitonin receptor; in test [2]; on D(4) dopamine receptor; at Adenosine receptor A3 (cho-k1); in test [3]) was “Not Active” each time. Further, the Ki result in test [2] was “Not Active”.

`Nc1ccc2c3c(cccc13)C(=O)NC2=O`: the half-maximal inhibitory concentration (IC50) result (in test [1]; on Calcitonin receptor; in test [2]; at D(4) dopamine receptor; against Adenosine receptor A3 (cho-k1); in test [3]) was “Not Active” in each case. The Ki result in test [2] is listed as “Not Active”.

In the case of `COc1ccc(C(=O)N2CCCC2=O)cc1`, the IC50 entry (in test [1]; at Calcitonin receptor; in test [2]; on D(4) dopamine receptor; against Adenosine receptor A3 (cho-k1); in test [3]) was “Not Active” in each case. Further, the Ki entry in test [2] is given as “Not Active”.

For the compound `O=c1cnn([C@@H]2O[C@H](CO)[C@@H](O)[C@H]2O)c(=O)[nH]1` [6-AZAURIDINE], the 50% inhibitory concentration (IC50) result (in test [1]; on Calcitonin receptor; in test [2]; at D(4) dopamine receptor; against Adenosine receptor A3 (cho-k1); in test [3]) was “Not Active” throughout. Further, in test [2], the inhibition constant Ki entry is “Not Active”.

As to `CC[C@H](C)[C@H]1O[C@]2(C=C[C@@H]1C)C[C@@H]1C[C@@H](C/C=C(\C)[C@@H](O[C@H]3C[C@H](OC)[C@@H](O[C@H]4C[C@H](OC)[C@@H](O)[C@H](C)O4)[C@H](C)O3)[C@@H](C)/C=C/C=C3\CO[C@@H]4[C@H](O)C(C)=C[C@@H](C(=O)O1)[C@]34O)O2.CO[C@H]1C[C@H](O[C@H]2[C@H](C)O[C@@H](O[C@@H]3/C(C)=C/C[C@@H]4C[C@@H](C[C@]5(C=C[C@H](C)[C@@H](C(C)C)O5)O4)OC(=O)[C@@H]4C=C(C)[C@@H](O)[C@H]5OC/C(=C\C=C\[C@@H]3C)[C@]54O)C[C@@H]2OC)O[C@@H](C)[C@@H]1O` [ABAMECTIN], the IC50 result in test [1] is “Not Active”; on Calcitonin receptor, “Not Active”; in test [2], “Not Active”; at D(4) dopamine receptor, “Not Active”; at Adenosine receptor A3 (read-out: IC50), 870 nM; in test [3], “Not Active”. Also, the Ki entry in test [2] is “Not Active”; on Adenosine receptor A3 (read-out: Ki), 492 nM.

With `NCCCC(O)(P(=O)(O)O)P(=O)(O)O` [ALENDRONIC ACID], the IC50 result (in test [1]; on Calcitonin receptor; in test [2]; on D(4) dopamine receptor; against Adenosine receptor A3 (cho-k1); in test [3]) was “Not Active” throughout. Also, the Ki result in test [2] is recorded as “Not Active”.

Take `Cc1nnc2n1-c1ccc(Cl)cc1C(c1ccccc1)=NC2` [ALPRAZOLAM]: the IC50 result (in test [1]; on Calcitonin receptor; in test [2]; at D(4) dopamine receptor; at Adenosine receptor A3 (cho-k1); in test [3]) was “Not Active” each time. Moreover, in test [2], the inhibition constant (Ki) entry is given as “Not Active”.

Regarding `Cn1c(=O)c2[nH]cnc2n(C)c1=O.Cn1c(=O)c2[nH]cnc2n(C)c1=O.NCCN` [AMINOPHYLLINE], the IC50 result (in test [1]; at Calcitonin receptor; in test [2]; at D(4) dopamine receptor; against Adenosine receptor A3 (cho-k1); in test [3]) was “Not Active” in each case. Besides, the inhibitory constant (Ki) entry in test [2] was “Not Active”.

Turning to `CCC1(CCC(C)C)C(=O)NC(=O)NC1=O` [AMOBARBITAL], the 50% inhibitory concentration (IC50) result (in test [1]; at Calcitonin receptor; in test [2]; at D(4) dopamine receptor; against Adenosine receptor A3 (cho-k1); in test [3]) was “Not Active” each time. For the same compound, the inhibition constant (Ki) entry in test [2] is “Not Active”.

For the compound `CC1(C)S[C@@H]2[C@H](NC(=O)[C@H](N)c3ccccc3)C(=O)N2[C@H]1C(=O)O` [AMPICILLIN], the IC50 entry (in test [1]; on Calcitonin receptor; in test [2]; at D(4) dopamine receptor; against Adenosine receptor A3 (cho-k1); in test [3]) was “Not Active” in each case. The Ki entry in test [2] is given as “Not Active”.

Take `COc1ccc(C2C(=O)c3ccccc3C2=O)cc1` [ANISINDIONE]: the IC50 entry (in test [1]; on Calcitonin receptor; in test [2]; on D(4) dopamine receptor; on Adenosine receptor A3 (cho-k1); in test [3]) was “Not Active” in each case. Besides, in test [2], the Ki result is reported as “Not Active”.

For `O=C1O[C@H]([C@@H](O)CO)C(O)=C1O` [ASCORBIC ACID], the IC50 result (in test [1]; at Calcitonin receptor; in test [2]; at D(4) dopamine receptor; against Adenosine receptor A3 (cho-k1); in test [3]) was “Not Active” each time. In addition, the inhibition constant Ki entry in test [2] is listed as “Not Active”.

For the compound `CN1[C@@H]2CC[C@H]1C[C@@H](OC(=O)C(CO)c1ccccc1)C2` (stereo partly specified) [ATROPINE], the IC50 entry (in test [1]; on Calcitonin receptor; in test [2]; on D(4) dopamine receptor; against Adenosine receptor A3 (cho-k1); in test [3]) was “Not Active” each time. In addition, the Ki entry in test [2] is recorded as “Not Active”.

Turning to `CC(C(=O)O)c1ccc2oc(-c3ccc(Cl)cc3)nc2c1` (stereo unspecified) [BENOXAPROFEN], the IC50 result (in test [1]; at Calcitonin receptor; in test [2]; at D(4) dopamine receptor; against Adenosine receptor A3 (cho-k1); in test [3]) was “Not Active” each time. For the same compound, in test [2], the Ki entry is listed as “Not Active”.

Source of the values: ChEMBL document CHEMBL1909046, “DrugMatrix in vitro pharmacology data”.
